# Data: US11198869B2, “Angelman syndrome antisense treatment” (The Texas A&M University System, priority 2017, dated 2021)
# Test system: UBE3A
# Assay: UBE3A steady state RNA (qRT-PCR) in GABAergic iPSC-derived neurons
# Type: cell-based, human
# Details: for effect on UBE3A RNA levels (in words): treated 29 DIV, RNA 35 DIV, 10-point dose curve; for Difference, UBE3A RNA level: ASOs 10 μM; for increase of UBE3A RNA levels: 10 μM
# Method: Human-specific ASOs were then designed to target this region, which included four ASOs targeting non-polymorphic regions in human and regions conserved (100%) with macaque (Rhesus and Cynomolgus) (Table 7 and FIG. 3A). Human induced pluripotent stem cell (iPSC) neural precursor cells were differentiated into GABAergic neurons for 14 DIV and then treated with a control ASO [ASO-C (10 μM, n=3)], Topotecan [Topo (1 μM, n=2)], and six ASOs targeting UBE3A-AS [ASO-1, ASO-2, ASO-3, ASO-4, ASO-5, and ASO-6 (10 μM, n=3)]. Additionally, an ASO targeting an intronic region downstream of SNORD109B was included (ASO-7). Six days post-treatment (20 DIV), RNA was isolated from the neurons and the steady state RNA levels of UBE3A-AS and UBE3A were estimated relative to the control treatment (FIG. 3B).
# The effects of ASO-4 and Topotecan were then examined on the SNORD116, IPW, SNORD115, and SNORD109A RNAs, which are located upstream of the ASO-4 target region (see FIG. 1A).
# The potency of ASO-4 was further examined in iPSC-derived neurons at a later time point in differentiation. GABAergic iPSC-derived neurons were treated at 59 DIV with a control ASO [ASO-C, 10 μM (n=3)] and ASO-4 [1 uM, 5 μM, and 10 μM (n=3)], and the steady state RNA levels of UBE3A-AS and UBE3A were measured as described above (FIG. 4G). Unlike neurons treated with ASO-4 at an earlier time point, the RNA levels of UBE3A and UBE3A-AS were highly inversely correlated (FIGS. 4H and 4I). For example, the effect of ASO-4 (10 μM) on UBE3A-AS RNA levels was similar between neurons treated at 14 and 59 DIV [20 DIV: UBE3A-AS: ↓87% (95% confidence intervals (CI): 80 to 95%); 65 DIV: ↓81% (95% CI: 74 to 88%)], whereas the effect of ASO-4 on UBE3A RNA levels was substantially larger in neurons treated at 59 DIV [20 DIV: ↑30% (95% CI: 16 to 44%); 65 DIV: ↑86% (95% CI: 59% to 113%)].
# The potency of ASO-4 and ASO-6.1 was further examined in iPSC-derived neurons at a later time point in differentiation. GABAergic iPSC-derived neurons were treated at 29 DIV with a 10-point ½ log dose response curve of ASO-4 and ASO-6.1 [1 nM, 3 nM, 10 nM, 30 nM, 100 nM, 300 nM, 1 μM, 3 μM, 10 μM, and 30 μM (n=3)]. At 35 DIV, the IC50 and Emax of each ASO was estimated as described above (FIG. 5C-D and Table 14). The dose response curves of ASO-4 and ASO-6.1 were not similar (Parallelism test: F(3,172)=22.7, p<0.0001).
# GABAergic and glutamatergic induced pluripotent stem cell (iPSC) derived neural precursor cells (NRC-100-010-001 and GNC-301-030-001, Cellular Dynamics International, Madison Wis.) were differentiated into neurons according to the manufactures protocol. Briefly, neural precursor cells were thawed and resuspended in chemically defined medium and added to sterile-culture plates coated with poly-D-lysine and laminin. The medium was replaced 24 hr after plating and then one-half of the medium was replaced every 3-5 days afterwards.
# For cultured iPSC-derived neurons, RNA isolation and cDNA synthesis were performed using the Cell-to-CT kit (Thermo Fisher Scientific) in a lysate volume of 55 μl.
# The steady state RNA levels of target transcripts were measured using TaqMan quantitative reverse-transcription PCR (qRT-PCR) assays. Total reaction volume was 10 uL, including 2 μl of cDNA, 1× Gene Expression Master mix (4369016, Thermo Fisher Scientific, Waltham, Mass.), and 1× TaqMan primer assay (Thermo Fisher Scientific). Cycling conditions were 2 minutes at 50° C., 10 minutes at 95° C., and 40 cycles of 15 seconds at 95° C. and 1 minute at 60° C., with readings taken at the 60° C. step of every cycle. Reactions were run on a BIO-RAD T1000 CFX96 thermocycler (Bio-Rad Laboratories, Hercules Calif.), with internal control (PPIA, Hs99999904_m1, Thermo Fisher Scientific) and target [UBE3A-AS, Hs01372957_m1; SNORD116-11, Hs04275268_gH; SNORD115, Hs04275288_gH; IPW, Hs03455409_s1; SNORD109A/B, AP47WVR (Thermo Fisher Scientific); UBE3A: forward […] (SEQ ID NO:500); reverse: […]
# [1] = Topo 1 μM, 14 DIV to 20 DIV, labelled treatment minus ASO-3
# [2] = Topo 1 μM, 14 DIV to 20 DIV, labelled treatment minus ASO-5
# [3] = Topo 1 μM, 14 DIV to 20 DIV, labelled treatment minus ASO-6
# [4] = Topo 1 μM, 14 DIV to 20 DIV, labelled treatment minus ASO-R
# [5] = Topo 1 μM, treated 14 DIV, RNA 20 DIV, normalized to ASO-C, labelled treatment minus ASO-C
# [6] = 14 DIV to 20 DIV, labelled treatment minus ASO-1
# [7] = 14 DIV to 20 DIV, labelled treatment minus Topo (1 μM)
Compound,effect on UBE3A RNA levels (in words),"Difference, UBE3A RNA level [1]","Difference, UBE3A RNA level [2]","Difference, UBE3A RNA level [3]","Difference, UBE3A RNA level [4]","Difference, UBE3A RNA level [5]","Difference, UBE3A RNA level [6]","Difference, UBE3A RNA level [7]","increase of UBE3A RNA levels (treated 14 DIV, RNA 20 DIV) [%]","increase of UBE3A RNA levels (treated 59 DIV, RNA 65 DIV) [%]","Difference, UBE3A RNA level (14 DIV to 20 DIV, labelled treatment minus ASO-2)"
C^O*U^O*G^O*G^O*t*g*t*c*a*a*c*a*a*g*C^O*C^O*A^O*A^O [ASO-6.1],increasing RNA levels in dose dependent manner,–,–,–,–,–,–,–,–,–,–
G^O*U^O*A^O*C^O*U^O*c*t*t*c*c*t*c*a*g*t*C^O*A^O*U^O*C^O*C^O [ASO-2],–,0.08,0.05,0.05,0.21,0.21,0.03,0.03,–,–,–
U^O*A^O*G^O*A^O*A^O*t*g*g*c*a*c*a*t*c*t*C^O*U^O*U^O*G^O*G^O [ASO-4],increasing RNA levels in dose dependent manner,0.17,0.13,0.13,0.29,0.30,0.11,0.11,30,86,0.08
"CC[C@@]1(O)C(=O)OCc2c1cc1n(c2=O)Cc2cc3c(CN(C)C)c(O)ccc3nc2-1 [Topotecan, reference compound]",–,0.05,0.02,0.02,0.18,0.18,–,–,–,–,–
